Data published in patent publication US20100215747A1, “NANOPARTICLES COMPRISING IONIZABLE, POORLY WATER SOLUBLE CELLULOSIC POLYMERS” (priority 2007, published 2010).
Converted amounts (≈) assume the structure as drawn. Read-outs that look alike come from different tables or passages of the source.

Assays:
[1] = Solubility of drug in water; type: physicochemical
Log P value of drug = type: physicochemical; conditions: octanol/water
Description: The first property of hydrophobic drugs is that they are extremely hydrophobic. Log P, defined as the base 10 logarithm of the ratio of the drug solubility in octanol to the drug solubility in water, is a widely accepted measure of hydrophobicity. By “extremely hydrophobic” is meant that the Log P value of the drug is at least 4.0, preferably at least 4.5, and most preferably at least 5.0. Log P may be measured experimentally or calculated using methods known in the art. When using a calculated value for Log P, the highest value calculated using any generally accepted method for calculating Log P is used. Calculated Log P values are often referred to by the calculation method, such as C log P, A log P, and M log P. The Log P may also be estimated using fragmentation methods, such as Crippen's fragmentation method (27 J. Chem. Inf. Comput. Sci. 21 (1987)); Viswanadhan's fragmentation method (29 J. Chem. Inf. Comput. Sci. 163 (1989)); or Broto's fragmentation method (19 Eur. J. Med. Chem.-Chim. Theor. 71 (1984). Preferably the Log P value is calculated by using the average value estimated using Crippen's, Viswanadhan's, and Broto's fragmentation methods.

[2] = Experimental: By “solids concentration” is meant the amount of solid polymer added to the PBS solution to measure the solubility of the polymer in the PBS solution. An appropriate PBS solution is an aqueous solution comprising 20 mM sodium phosphate (Na2HPO4), 47 mM potassium phosphate (KH2PO4), 87 mM NaCl, and 0.2 mM KCl, adjusted to pH 6.5 with NaOH. A test to determine whether the polymer is poorly water soluble may be performed as follows. The polymer is initially present in bulk form with average particle sizes of greater than 1 micron. The solid polymer alone is added to a PBS solution to achieve a solids concentration of 0.2 mg/mL polymer in the PBS solution. The PBS solution is stirred for approximately 1 hour at room temperature. Next, a nylon 0.45 μm filter is weighed, and the polymer solution is filtered. The filter is dried overnight at 40° C., and weighed the following morning. The amount of polymer dissolved is calculated from the amount of polymer added to the PBS solution minus the amount of polymer remaining on the filter (mg).
The degree of water solubility of Polymers 2, 3, and 5 were evaluated as follows. […] The amount of dissolved polymer was calculated from amount of polymer added to the PBS solution minus the amount of polymer remaining on the filter (mg). […]

Compound	solubility ([1]; read-out: solubility in water) [µg/mL]	logP (Log P value of drug)	Solubility (mg/mL) at pH 6.5 [2] [mg/mL]	further results
Cc1ccc(-c2cc(C(F)(F)F)nn2-c2ccc(S(N)(=O)=O)cc2)cc1 [Drug 1, 4-[5-(4-methylphenyl)-3-(trifluoromethyl)-1H-pyrazol-1-yl]benzenesulfonamide]	~3.5 (≈ 9.18 µM)	–	–	–
O=C1NC(=O)C(c2ccccc2)(c2ccccc2)N1 [Drug 3, diphenylhydantoin]	–	2.47	–	solubility ([1]; pH 7.5, aqueous buffer, read-out: solubility in water at pH 7.5): ~22 µg/mL (≈ 87.2 µM)
O=C1Cc2cc(CCN3CCN(c4nsc5ccccc45)CC3)c(Cl)cc2N1 [Drug 4]	~0.15 (≈ 0.363 µM)	~3.6	–	–

Second part, led by results:

solubility ([1]; read-out: solubility in water) [µg/mL]	logP (Log P value of drug)	Solubility (mg/mL) at pH 6.5 [2] [mg/mL]	Compound	further results
< 0.01	–	–	CC[C@@H]1C[C@H](N(Cc2cc(C(F)(F)F)cc(C(F)(F)F)c2)C(C)=O)c2cc(C(F)(F)F)ccc2N1C(=O)OC(C)C [Drug 2, [2R,4S]-4-[acetyl-(3,5-bis-trifluoromethyl-benzyl)-amino]-2-ethyl-6-trifluoromethyl-3,4-dihydro-2H-quinoline-1-carboxylic acid isopropyl ester]	–
–	–	0.2	carboxy methyl ethyl cellulose [CP6]	–
–	–	0.2	cellulose acetate trimellitate [CP5]	–
